Test results taken from patent US10472353B2, “Salt and crystal forms of PLK-4 inhibitor” (University Health Network, priority 2013, dated 2019).
Where a name gives a salt, the structure may show the parent alone. Read-outs that look alike come from different tables or passages of the source.

Tests used:
[1] = Gravimetric moisture sorption (dynamic vapour sorption, 25° C.); assay type: physicochemical; settings: for Gravimetric Moisture Sorption: 25° C.
Protocol: Gravimetric moisture sorption experiments were carried out on a Hiden dynamic vapour sorption analyzer by first holding the sample at 40% RH and 25° C. until an equilibrium weight was reached or for a maximum of four hours. The sample was then subjected to an isothermal (25° C.) adsorption scan from 40 to 90% RH in steps of 10%. The sample was allowed to equilibrate to an asymptotic weight at each point for a maximum of four hours. Following adsorption, a desorption scan from […] RH (at 25° C.) was run in steps of −10% again allowing a maximum of four hours for equilibration to an asymptotic weight. An adsorption scan was then performed from 0% RH to 40% RH in steps of +10% RH.

[2] = Solubility in deionized water; assay type: physicochemical
[3] = Differential scanning calorimetry, phase transition of the polymorphs; assay type: physicochemical
Protocol: DSC analyses were carried out on a Mettler 822e differential scanning calorimeter or a TA instruments Q2000. Samples were weighed in an aluminum pan, covered with a pierced lid, and then crimped. Analysis conditions were 30-120, 30-200, 30-300° C. and 40-300° C. ramped at 10° C./min.
Form D can be directly prepared as follows: A 250-mL three neck RBF equipped with a stir bar was charged with compound (I) (6.01 g, 11 mmol) and fumaric acid (1.41 g, 12 mmol). Acetone (50 mL) was added and the slurry was heated to 50° C. until the solution became clear. Precipitation was observed after 10 min, and stirring was continued for an additional 30 min. MTBE (25 mL) was added and the solution was cooled to rt and stirred overnight. The solids were filtered and dried under vacuum at 60° C. for 2 d to give the title compound (I) as a white solid (6.65 g, 91%).

[4] = Pharmacokinetics after single oral dose, powder in capsule, plasma levels of compound (I) by LC/MS; assay type: in vivo, female Sprague-Dawley rats; settings: Sprague-Dawley rats
Protocol: A single oral dose in solution and as powder in capsule of the HCl salt of (I), fumarate form D and maleate form A were administered to female Sprague-Dawley rats at 5 mg/kg. Blood samples were collected in the presence of lithium heparin, and were centrifuged to generate plasma. The plasma was then analyzed for compound (I) plasma levels by LC/MS.
All animals involved in the dosing schedule were weighed and assigned numbers. All capsules (Size 9 porcine hard gelatin capsules, Torpac) corresponding with each animal to be dosed were carefully numbered with a fine tip Sharpie. A small plastic weighing dish was placed on the scale, with one capsule lid placed on the dish and the base of the capsule loader with the other part of the capsule was loaded in the reservoir. The balance was tared. A funnel was placed on top of the capsule loading apparatus and the total mass was carefully noted. A piece of 4″×4″ wax paper was folded in half creating a crease down the median. A small amount of finely ground compound (Ground the compound if required using mortar and pestle) was deposited in the crease of the wax paper and refolded. The folded wax paper was gently angled over the capsule loader funnel apparatus. A fine scapula was used to tease an amount of compound powder out of the crease onto the funnel allowing it to trickle into the loading bay and ultimately the capsule. The difference in mass from the total mass was noted. The capsule loading funnel was removed and the balance door closed to ascertain the absolute weight of compound inside the capsule. The funnel was returned to the capsule loading apparatus and loading continued until the desired amount of drug was inside the capsule. Note: When adding minute quantities to the capsule, simply brushed fine powered drug that settled on the funnel into the loading column. The funnel was removed and the weight was recorded. Calculated the amount of actual drug by multiplying weighed material by the bioequivalence ratio. The amount of actual drug was recorded. The capsule lid on the weighing dish was used to close the capsule tightly until it clicked into place.
All animals (n=3/group) were dosed orally in a volume of 5 mL/kg. Following dosing, each rat was bled at each of the designated time points. For control animals, blood was collected by the same procedure. Blood was collected from the lateral saphenous vein. Blood aliquots (˜50 μL) were collected in tubes coated with lithium heparin, mixed gently, then kept on ice and centrifuged at 2,500×g for 15 minutes at RT, within 1 hour of collection. The plasma layer was collected, kept on ice and finally maintained frozen at −80° C. until further processing.
Bioanalytical quantitation using HPLC/tandem quadruple mass spectrometry (HPLC-MS) was performed. Plasma concentrations and […] were calculated and reported.
A 5 mg/mL standard solution in DMSO was diluted 100 fold and subsequently serial diluted in 50% DMSO. Aliquots (2 μL) of the serial dilutions were mixed with 18 μL of control plasma (20 μL total) for use as a standard curve. Plasma samples (20 μL) and standard samples were then diluted 5× with ice cold acetonitrile containing 100 ng/mL verapamil as internal standard (80% (v/v) acetonitrile). Acetonitrile precipitated samples and standards were filtered through 0.22 μm membranes in a 96-well format. Filtrates were then diluted with water to 30% acetonitrile.
LC: 10 μL of each sample and standard were injected onto a Waters Acquity CSH 1.7 μm 2.1×100 mm column at 0.6 mL/min by an Acquity UPLC. The C18 column was equilibrated at 10% acetonitrile. Compounds were eluted with a gradient to 99% acetonitrile. All mobile phases contained 0.1% (v/v) formic acid.
MS: Column eluent was analyzed by electrospray ionization into a tandem quadrupole mass spec system (Waters Xevo TQ). Eluent composition was analyzed for three ion-pairs specific for the internal standard and three ion-pairs specific for the analyte. […]

Q: Which results are given for `COc1ccc2c(c1)[C@]1(C[C@H]1c1ccc3c(/C=C/c4ccc(CN5C[C@@H](C)O[C@@H](C)C5)cc4)n[nH]c3c1)C(=O)N2` [Phosphate]?
A: Gravimetric Moisture Sorption ([1]; 60% RH): 6.1 wt % 60% RH; Gravimetric Moisture Sorption ([1]; 90% RH): 10.9 wt % 90% RH; Solubility in DI water [2]: ≥100 mg/mL

Q: Which results are given for `COc1ccc2c(c1)[C@]1(C[C@H]1c1ccc3c(/C=C/c4ccc(CN5C[C@@H](C)O[C@@H](C)C5)cc4)n[nH]c3c1)C(=O)N2` [Fumarate (form D)]?
A: Gravimetric Moisture Sorption ([1]; 60% RH, listed as Fumarate D): 2.1 wt % 60% RH; Gravimetric Moisture Sorption ([1]; 90% RH, listed as Fumarate D): 4.0 wt % 90% RH; Stability among the four fumarate polymorphs (phase transition by DSC) [3]: highest stability; AUC0-tlast ([4]; 5.0 mg/kg): 2780 ng·h/mL; Cmax ([4]; 5.0 mg/kg): 270 ng/mL; Solubility in DI water ([2]; listed as Fumarate D): 0.17 mg/mL

Q: With `COc1ccc2c(c1)[C@]1(C[C@H]1c1ccc3c(/C=C/c4ccc(CN5C[C@@H](C)O[C@@H](C)C5)cc4)n[nH]c3c1)C(=O)N2` [Fumarate B] as the compound, how does the “Gravimetric Moisture Sorption” value ([1]; 60% RH) read?
A: Its value is 3.7 wt % 60% RH.

Q: And the “Hydrate formed on moisture sorption” value ([1]; 90% RH)?
A: The value was “tetrahydrate”.

Q: What about the “Gravimetric Moisture Sorption” value ([1]; 90% RH) of the same compound?
A: The value was 10.5 wt % 90% RH.

Q: And the “Hygroscopicity (in words)” value ([1]; listed as Form B)?
A: The value was “hygroscopic”.

Q: Which results are given for `COc1ccc2c(c1)[C@]1(C[C@H]1c1ccc3c(/C=C/c4ccc(CN5C[C@@H](C)O[C@@H](C)C5)cc4)n[nH]c3c1)C(=O)N2` [HCl]?
A: AUC(0-t) ([4]; female, Sprague-Dawley, rat, plasma, po, 5 mg/kg, read-out: AUC0-tlast): 2400 ng·h/mL; Cmax ([4]; female, Sprague-Dawley, rat, plasma, po, 5 mg/kg, read-out: Cmax): 250 ng/mL; Solubility in DI water [2]: ≥100 mg/mL

Q: For `COc1ccc2c(c1)[C@]1(C[C@H]1c1ccc3c(/C=C/c4ccc(CN5C[C@@H](C)O[C@@H](C)C5)cc4)n[nH]c3c1)C(=O)N2` [1:1 Compound (I) fumarate], which “Hygroscopicity (in words)” value [1] is on record?
A: Its value is “non-hygroscopic”.

Q: With `COc1ccc2c(c1)[C@]1(C[C@H]1c1ccc3c(/C=C/c4ccc(CN5C[C@@H](C)O[C@@H](C)C5)cc4)n[nH]c3c1)C(=O)N2` [1:1 compound (I) maleate] as the compound, how does the “Hygroscopicity (in words)” value [1] read?
A: Its value is “non-hygroscopic”.

Q: Which “Solubility in DI water” value [2] does the source give for `COc1ccc2c(c1)[C@]1(C[C@H]1c1ccc3c(/C=C/c4ccc(CN5C[C@@H](C)O[C@@H](C)C5)cc4)n[nH]c3c1)C(=O)N2` [Fumarate C] here?
A: Its value is 0.625 mg/mL.

Q: Which “Gravimetric Moisture Sorption” value ([1]; 60% RH, listed as Maleate A) does the source give for `COc1ccc2c(c1)[C@]1(C[C@H]1c1ccc3c(/C=C/c4ccc(CN5C[C@@H](C)O[C@@H](C)C5)cc4)n[nH]c3c1)C(=O)N2` [Maleate (form A)] here?
A: The value was 1.3 wt %, 60% RH.

Q: What about the “Gravimetric Moisture Sorption” value ([1]; 90% RH, listed as Maleate A) of the same compound?
A: The value was 2.2 wt %, 90% RH.

Q: What about the AUC0-tlast ([4]; 5.0 mg/kg) of the same compound?
A: Its AUC0-tlast is 1500 ng·h/mL.

Q: What about the Cmax ([4]; 5.0 mg/kg) of the same compound?
A: Its Cmax is 200 ng/mL.
